Test results from patent publication US12491185B2, “Inhibitors of mPTP” (NRG Therapeutics Ltd, priority 2023, dated 2025).

Experiments:
[1] = test system: mPTP; assay: mPTP activity assay in isolated rat brain mitochondria; type: biochemical; conditions: fluorescence at 10 min timepoint
How it was run: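 Fresh brain mitochondria from female Sprague Dawley rats, digitonin-washed, in pH 7.4 mannitol/MOPS/KCl buffer with pyruvate, malate, ADP, oligomycin A and 2 μM Fluo5N. Preincubated with compounds 10 min at RT. Fluo5N fluorescence then read every 3 sec for 10 min on FLIPR Tetra.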

[2] = test system: mPTP; assay: mPTP activity (Ca2+ retention) assay in isolated rat liver mitochondria; type: biochemical; conditions: examples tested by different contract research organisations, believed comparable
How it was run: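 pIC50 was taken from Fluo5N fluorescence at 10 min after a 75 μM CaCl2 bolus, scaled between DMSO (0%) and 5 μM cyclosporin A (100%). Compounds, ten half-log concentrations from 30 μM to 1 nM final, sat 10 min at RT with fresh female Sprague Dawley rat liver mitochondria energized by succinate plus rotenone.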

Structure (SMILES)	mPTP Rat brain pIC50 [1]	mPTP Rat liver pIC50 [2]
O=C(NCC1(Cc2cccc(F)c2)CCC1)c1cncc(O)n1 [Example 49, N-((1-(3-fluorobenzyl)cyclobutyl)methyl)-6-hydroxypyrazine-2-carboxamide]	7.44	4.56
O=C(NCC1(Cc2ccc(F)cc2)CCC1)c1cncc(O)n1 [Example 50, N-((1-(4-fluorobenzyl)cyclobutyl)methyl)-6-hydroxypyrazine-2-carboxamide]	7.23	4.66
Cn1nc(C(=O)NCC(Cc2ccccc2)C2CCC2)[nH]c1=O (stereo not drawn) [Example 51, N-(2-cyclobutyl-3-phenylpropyl)-1-methyl-5-oxo-4,5-dihydro-1H-1,2,4-triazole-3-carboxamide]	6.84	5.62
CC(c1ccc(F)cc1F)C1(CNC(=O)c2nn(C)c(=O)[nH]2)CCC1 (stereo not drawn) [Example 52, N-((1-(1-(2,4-difluorophenyl)ethyl)cyclobutyl)methyl)-1-methyl-5-oxo-4,5-dihydro-1H-1,2,4-triazole-3-carboxamide]	7.64	6.41
Cn1nc(C(=O)NCC(Cc2ccccc2)C2CC2)[nH]c1=O (stereo not drawn) [Example 53, N-(2-cyclopropyl-3-phenylpropyl)-1-methyl-5-oxo-4,5-dihydro-1H-1,2,4-triazole-3-carboxamide]	7.46	6.46
CC(C)(CNC(=O)c1ccc(=O)[nH]n1)Cc1ccccc1 [Example 56]	6.73	5.76
CC(C)(CNC(=O)c1ccc2oc(=O)[nH]c2c1)Cc1ccccc1 [Example 57]	6.25	5.43
O=C(NCC1(Cc2ccccn2)CCC1)c1cncc(=O)[nH]1 [Example 62, 6-oxo-N-((1-(pyridin-2-ylmethyl)cyclobutyl)methyl)-1,6-dihydropyrazine-2-carboxamide]	5.16	4.85
Cc1n[nH]c(C(=O)NCC2(Cc3ccccc3)CCC2)n1 [Example 64, N-((1-benzylcyclobutyl)methyl)-3-methyl-1H-1,2,4-triazole-5-carboxamide]	4.64	<4.52
Cn1nc(C(=O)NCC(Cc2cccc(F)c2)C2CC2)[nH]c1=O (stereo not drawn) [Example 78, N-(2-Cyclopropyl-3-(3-fluorophenyl)propyl)-1-methyl-5-oxo-4,5-dihydro-1H-1,2,4-triazole-3-carboxamide]	7.28	6.59
Cn1nc(C(=O)NCC2(Cc3cccc(Cl)c3)CCC2)[nH]c1=O [Example 79, N-((1-(3-Chlorobenzyl)cyclobutyl)methyl)-1-methyl-5-oxo-4,5-dihydro-1H-1,2,4-triazole-3-carboxamide]	7.59	6.39
CCC(CNC(=O)c1nn(C)c(=O)[nH]1)Cc1cccs1 (stereo not drawn) [Example 80, 1-Methyl-5-oxo-N-(2-(thiophen-2-ylmethyl)butyl)-4,5-dihydro-1H-1,2,4-triazole-3-carboxamide]	6.29	5.77
Cn1nc(C(=O)NCC2(Cc3cc(F)ccc3F)CCC2)[nH]c1=O [Example 81, N-((1-(2,5-Difluorobenzyl)cyclobutyl)methyl)-1-methyl-5-oxo-4,5-dihydro-1H-1,2,4-triazole-3-carboxamide]	6.51	6.85
Cc1ccc(F)c(CC2(CNC(=O)c3nn(C)c(=O)[nH]3)CCC2)c1 [Example 83, N-((1-(2-Fluoro-5-methylbenzyl)cyclobutyl)methyl)-1-methyl-5-oxo-4,5-dihydro-1H-1,2,4-triazole-3-carboxamide]	7.27	6.04
Cn1nc(C(=O)NCC2(Cc3cccc(F)c3)CCC2)[nH]c1=O [Example 84, N-((1-(3-Fluorobenzyl)cyclobutyl)methyl)-1-methyl-5-oxo-4,5-dihydro-1H-1,2,4-triazole-3-carboxamide]	7.72	6.72
Cn1nc(C(=O)NCC2(Cc3ccc(F)cc3F)CCCC2)[nH]c1=O [Example 92, N-((1-(2,4-Difluorobenzyl)cyclopentyl)methyl)-1-methyl-5-oxo-4,5-dihydro-1H-1,2,4-triazole-3-carboxamide]	7.54	6.31
Cn1nc(C(=O)NCC2(Cc3cccc(F)c3F)CCC2)[nH]c1=O [Example 95, N-((1-(2,3-Difluorobenzyl)cyclobutyl)methyl)-1-methyl-5-oxo-4,5-dihydro-1H-1,2,4-triazole-3-carboxamide]	7.39	6.16
CC[C@H](CNC(=O)c1nn(C)c(=O)[nH]1)Cc1ccc(F)cc1F [Example 98, (S)—N-(2-(2,4-Difluorobenzyl)butyl)-1-methyl-5-oxo-4,5-dihydro-1H-1,2,4-triazole-3-carboxamide]	7.78	6.59
Cn1nc(C(=O)NCC2(Cc3cccc(Br)c3)CCC2)[nH]c1=O [Example 99, N-((1-(3-Bromobenzyl)cyclobutyl)methyl)-1-methyl-5-oxo-4,5-dihydro-1H-1,2,4-triazole-3-carboxamide]	7.68	5.89
Cn1nc(C(=O)NCC2(Cc3cccc(C#N)c3)CCC2)[nH]c1=O [Example 100, N-((1-(3-Cyanobenzyl)cyclobutyl)methyl)-1-methyl-5-oxo-4,5-dihydro-1H-1,2,4-triazole-3-carboxamide]	6.32	5.99
Cn1nc(C(=O)NCC2(Cc3cc(F)cc(F)c3)CCC2)[nH]c1=O [Example 116, N-((1-(3,5-difluorobenzyl)cyclobutyl)methyl)-1-methyl-5-oxo-4,5-dihydro-1H-1,2,4-triazole-3-carboxamide]	6.45	6.04
Cn1nc(C(=O)NCC2(Cc3ccc(F)cc3F)CCOCC2)[nH]c1=O [Example 121]	7.1	6.67
Cc1cc(F)ccc1C[C@@H](CNC(=O)c1nn(C)c(=O)[nH]1)C1CC1 [Example 131]	7.85	7.01
O=C(NCC1(Cc2ccc(F)cc2F)CCC1)c1c[nH]c(=O)cn1 [Example 132]	7.31	6.08

More lines, now with the values ahead:

mPTP Rat brain pIC50 [1]	mPTP Rat liver pIC50 [2]	Structure (SMILES)
7.5	6.51	O=C(NCC1(Cc2ccc(F)c(F)c2)CCC1)c1nccc(=O)[nH]1 [Example 133]
7.42	7.04	Cn1nc(C(=O)NCC2(Cc3ccc(F)c(F)c3)CCC2)[nH]c1=O [Example 142, N-((1-(3,4-difluorobenzyl)cyclobutyl)methyl)-1-methyl-5-oxo-4,5-dihydro-1H-1,2,4-triazole-3-carboxamide]
7.62	6.85	O=C(NCC1(Cc2cc(F)ccc2F)CCC1)c1nccc(=O)[nH]1 [Example 146]
7.07	6.32	O=C(NC[C@H](Cc1ccc(F)cc1F)C1CC1)c1cncc(=O)[nH]1 [Example 149]
7.61	7.08	Cn1nc(C(=O)NC[C@H](Cc2ccc(F)c(F)c2)C2CC2)[nH]c1=O [Example 150]
7.44	6.19	O=C(NCC1(Cc2ccc(F)cc2F)CCCC1)c1cncc(=O)[nH]1 [Example 152]
7.12	6.22	O=C(NC[C@H](Cc1cc(F)ccc1F)C1CC1)c1nccc(=O)[nH]1 [Example 153]
7.24	6.28	Cn1nc(C(=O)NCC2(Cc3ccc(F)c(F)c3F)CCC2)[nH]c1=O [Example 156]
7.81	7.03	Cn1nc(C(=O)NCC2(Cc3cc(F)c(F)cc3F)CCC2)[nH]c1=O [Example 157, 1-methyl-5-oxo-N-((1-(2,4,5-trifluorobenzyl)cyclobutyl)methyl)-4,5-dihydro-1H-1,2,4-triazole-3-carboxamide]
7.77	6.97	Cn1nc(C(=O)NC[C@H](Cc2cc(F)ccc2F)C2CC2)[nH]c1=O [Example 159]
7.7	6.28	O=C(NCC1(Cc2ccc(F)cc2F)CCC1)c1nccc(=O)[nH]1 [Example 160]
7.74	6.29	O=C(NCC1(Cc2cc(F)ccc2F)CCC1)c1cncc(=O)[nH]1 [Example 174]
6.81	5.92	O=C(NCC1(Cc2ccc(F)cc2F)CCC1)c1ccc(=O)[nH]n1 [Example 175]
6.65	5.85	O=C(NCC1(Cc2cccc(F)c2)CCC1)c1ccc(=O)[nH]n1 [Example 177]
6.91	5.66	CSc1ccccc1CC1(CNC(=O)c2nn(C)c(=O)[nH]2)CCC1 [Example 181]
7.42	6.47	CC[C@H](CNC(=O)c1nccc(=O)[nH]1)Cc1ccc(F)cc1F [Example 191]
7.43	6.37	O=C(NC[C@H](Cc1ccc(F)cc1F)C1CC1)c1nncc(=O)[nH]1 [Example 195, (R)-N-(2-cyclopropyl-3-(2,4-difluorophenyl)propyl)-5-oxo-4,5-dihydro-1,2,4-triazine-3-carboxamide]
7.66	6.48	O=C(NC[C@H](Cc1ccc(F)c(F)c1)C1CC1)c1noc(=O)[nH]1 [Example 203]
